Holding throughout (type): functional
Assay [1] is described as follows: Antioxidant activity assessed as inhibition of copper-mediated LDL oxidation by FPLC method.
A short description of assay [2]: Antioxidant activity against copper-mediated LDL oxidation assessed as oxidized LDL type E level at 3 x 10 '-5 M by FPLC method.
A short description of assay [3]: Antioxidant activity against copper-mediated LDL oxidation assessed as oxidized LDL type D level at 3 x 10 '-5 M by FPLC method.
Assay [4] has as its system Oryctolagus cuniculus. Nature of the assay: Antioxidant activity against copper-induced LDL oxidation in Watanabe Oryctolagus cuniculus (rabbit) assessed as time duration of protection at 250 mg/kg, po administered as single dose.
Assay [5] in a line: Antioxidant activity against copper-mediated LDL oxidation assessed as native LDL type B level at 3 x 10 '-6 M by FPLC method.
Assay [6] in a line: Antioxidant activity assessed as inhibition of copper-mediated LDL oxidation by FPLC method relative to probucol.
A short description of assay [7]: Antioxidant activity assessed as inhibition of copper-mediated LDL oxidation at 3 x 10 '-6 M by FPLC method. Conditions: TDE = time-dependent effect.
For assay [8], the system named is Oryctolagus cuniculus. Nature of the assay: Antioxidant activity against copper-induced LDL oxidation in Watanabe Oryctolagus cuniculus (rabbit) assessed as time duration of protection at 50 mg/kg, po administered as single dose.
Assay [9] in a line: Antioxidant activity against copper-mediated LDL oxidation assessed as oxidized LDL type D level at 3 x 10 '-6 M by FPLC method.
The nature of assay [10]: Antioxidant activity against copper-mediated LDL oxidation assessed as oxidized LDL type C level at 3 x 10 '-6 M by FPLC method.

As usually defined, the IC50 is the point on the concentration scale where inhibition reaches its midpoint. Regarding `CC(C)(Sc1cc(C(C)(C)C)c(O)c(C(C)(C)C)c1)Sc1cc(C(C)(C)C)c(O)c(C(C)(C)C)c1` [PROBUCOL], in assay [1], the IC50 came to 30 µM. Further, the Activity was found to be 52% in [2] and 48% in assay [3]. The Time in the assay on Oryctolagus cuniculus [4] was 48 h.
Turning to `CC1/C(=C\c2cc(C(C)(C)C)c(O)c(C(C)(C)C)c2)C(=O)c2cc3oc(=O)n(C)c3cc21` (configuration not stated), the Activity in [5] was 84%; in [1], “Dose-dependent effect”; in [7], “tde”; in [9], 8%; in [10], 8%. Besides, the Ratio in assay [6] came to 10. In addition, the half-inhibitory concentration (IC50) in assay [1] is 3 µM. Further, the Time with Oryctolagus cuniculus [8] amounted to 48 h.

Values taken from ChEMBL document CHEMBL3046910, “Synthesis and pharmacological evaluation of antioxidant chalcone derivatives of 2(3H)-benzoxazolones” (Med Chem Res, 2009).
